The text below walks through data of patent US20100190688A1, “Tetrapeptide analogs” (priority 2004, published 2010).

Bounds are passed on as bounds.

The target in experiment [1] is BIR3 domain of rat XIAP (Rattus norvegicus, UniProt Q9R0I6). The experiment is described as follows: Fluorescence polarization assay, binding to BIR3 from rat XIAP.
Description: In fluorescence polarization assays a fluorescent probe is used. The binding affinity of compounds to BIR3 is measured by competitive displacement of a fluorescent probe using fluorescence polarization anisotropy. […] In other embodiments, the probe used is 6-(6-Hydroxy-3-oxo-3H-xanthen-9-yl)-N-(5-(2-methylamino-propionylamino)-6-oxo-6-[4-(1,2,3,4-tetrahydro-naphthalen-1-ylcarbamoyl)-thiazolidin-3-yl]-hexyl)-isophthalamic acid.
The binding affinity of compounds provided herein for rat BIR3 was measured by competitive displacement of a fluorescent probe using fluorescence polarization anisotropy. […] Control conditions were set up on each plate and include free probe 1 alone (5 nM), fully bound probe (5 μM BIR3+5 nM probe 1) and binding buffer blank. The-EC50 of binding was computed from a 4-parameter fit of the measured anisotropies using the SoftMax Pro 4.6 software package (Molecular Dynamics, Sunnyvale, Calif.).
Alternatively, probe 1 was substituted with probe 2: 6-(6-Hydroxy-3-oxo-3H-xanthen-9-yl)-N-{5-(2-methylamino-propionylamino)-6-oxo-6-[4-(1,2,3,4-tetrahydro-naphthalen-1-ylcarbamoyl)-thiazolidin-3-yl]-hexyl}-isophthalamic acid, for rat BIR3 and the concentrations of assay components changed. […] Controls were adjusted accordingly.
The target of experiment [2] is T1, BIR3-mediated Caspase-9 inhibition (UniProt Q9R0I6).
T1 construct: Nothing is printed for this assay
The experiment is described as follows: Caspase-9 rescue assay (relief of BIR3-mediated Caspase-9 inhibition). It is filed as biochemical, human Caspase-9; Rat or Chicken BIR3. The note with it: average EC50, substrate Ac-LEHD-amc, pH 6.5. As for the experimental part:
Additionally the compounds and compositions can be evaluated for their ability to achieve relief of BIR3-mediated Caspase-9 inhibition by measuring Caspase-9 reactivation. The fluorogenic substrate Ac-LEHD-7-amido-4-methylcoumarin is used in these methods. EC50 values of tested BIR3 inhibitors or Caspase-9 rescuers is calculated from the percentage of Caspase-9 reactivation in the mixtures containing serially diluted concentrations of tested compound. Typically, 10-point curves are generated for such EC50 determination.
Relief of BIR3-mediated Caspase-9 inhibition by BIR3 inhibitors was assayed by measuring Caspase-9 reactivation using the fluorogenic substrate Ac-LEHD-7-amido-4-methylcoumarin. A truncated form of human Caspase-9 that lacks the N-terminal Caspase recruitment domain (EPro-Caspase-9 or p35/p12) was used in the assay. This form of the enzyme has the full catalytic activity and the same substrate specificity as the full-length protein in the Apaf-1/Cytochrome C/dATP/Caspase-9 reconstituted system. Rat or Chicken BIR3 was used in this assay. […] This mixture was incubated for 40 min to allow equilibration at 25° C., and the assay progression was subsequently followed by monitoring the formation of fluorescent 7-amido-4-methylcoumarin over time at 460 nm using an excitation wavelength of 360 nm. […] EC50 values of tested BIR3 inhibitors or Caspase-9 rescuers were calculated from the percentage of Caspase-9 reactivation in the mixtures containing serially diluted concentrations of tested compound.

BIR3 domain of rat XIAP, sequence (Q9R0I6 241-355): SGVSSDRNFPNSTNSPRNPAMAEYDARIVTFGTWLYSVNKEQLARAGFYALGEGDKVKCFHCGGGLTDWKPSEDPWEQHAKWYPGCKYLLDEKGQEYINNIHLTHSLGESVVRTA

The term EC50 denotes the midpoint of the concentration-response curve. A lower EC50 goes with greater potency. Regarding `CNC(C)C(=O)NC(C(=O)NC(CCO)C(=O)NC1CCCc2ccccc21)C(C)C` (stereo not drawn) [N-[3-Hydroxy-1-(1,2,3,4-tetrahydro-naphthalen-1-ylcarbamoyl)-propyl]-3-methyl-2-(2-methylamino-propionylamino)-butyramide], the 50% effective concentration (EC50) was < 1000 nM in experiment [1] and 1000 to 10000 nM in experiment [2].
As for `CNC(C)C(=O)NC(C(=O)NC(CCCCNS(=O)(=O)Cc1ccccc1)C(=O)NC1CCCc2ccccc21)C(C)C` (stereo not drawn) [2-[3-Methyl-2-(2-methylamino-propionylamino]-butyrylamino]-6-phenylmethanesulfonylamino-hexanoic acid (1,2,3,4-tetrahydro-naphthalen-1-yl)-amide], the EC50 in experiment [1] and in experiment [2] was < 1000 nM in each case.
Turning to `CN[C@@H](C)C(=O)N[C@H]1CCCN2CC[C@@H](C(=O)N[C@@H]3CCCc4ccccc43)N2C1=O` [8-(2-Methylamino-propionylamino)-9-oxo-hexahydro-pyrazolo[1,2-a][1,2]diazepine-1-carboxylic acid (1,2,3,4-tetrahydro-naphthalen-1-yl)-amide], the results for the EC50 in experiment [1] and in experiment [2] were < 1000 nM and 1000 to 10000 nM, respectively.
With `CNC(C)C(=O)NC(C(=O)NCC(=O)NC1CCCc2ccccc21)C(C)C` (stereo not drawn) [3-Methyl-2-(2-methylamino-propionylamino)-N-[(1,2,3,4-tetrahydro-naphthalen-1-ylcarbamoyl)-methyl]-butyramide], the EC50 in experiment [1] and in experiment [2] was 1000 to 10000 nM each time.
For the compound `CCCNC(C)C(=O)NC(C(=O)N1CCCC1C(=O)NC1CCCc2ccccc21)C(C)(C)C` (stereo not drawn) [1-[3,3-Dimethyl-2-(2-propylamino-propionylamino)-butyryl]-pyrrolidine-2-carboxylic acid (1,2,3,4-tetrahydro-naphthalen-1-yl)-amide], the values for the EC50 in experiment [1] and in experiment [2] were < 1000 nM and 1000 to 10000 nM, respectively.
The corresponding values for `CNC(C)C(=O)NC(C(=O)N1CCCC1C(=O)NCCC(c1ccccc1)c1ccccc1)C(C)(C)C` (stereo not drawn) [1-[3,3-Dimethyl-2-(2-methylamino-propionylamino)-butyryl]-pyrrolidine-2-carboxylic acid (3,3-diphenyl-propyl)-amide] are 1000 to 10000 nM and > 10000 nM.
In the case of `CNC(C)C(=O)NC(C(=O)NC(CCCCN(C)C)C(=O)NC1CCCc2ccccc21)C(C)C` (stereo not drawn) [6-Dimethylamino-2-[3-methyl-2-(2-methylamino-propionylamino)-butyrylamino]-hexanoic acid (1,2,3,4-tetrahydro-naphthalen-1-yl)-amide], the EC50 in experiment [1] and in experiment [2] was < 1000 nM each time.
Regarding `CNC(C)C(=O)NC(C(=O)NC(CCCCNC(C)=O)C(=O)NC1CCCc2ccccc21)C(C)C` (stereo not drawn) [6-Acetylamino-2-[3-methyl-2-(2-methylamino-propionylamino)-butyrylamino]-hexanoic acid (1,2,3,4-tetrahydro-naphthalen-1-yl)-amide], the EC50 in experiment [1] was < 1000 nM; in experiment [2] it was 1000 to 10000 nM.
The matching figures for `CNC(C)C(=O)NC(C(=O)N1CSCC1C(=O)NC1CCc2ccccc21)C(C)C` (stereo not drawn) [3-[3-Methyl-2-(2-methylamino-propionylamino)-butyryl]-thiazolidine-4-carboxylic acid indan-1-ylamide]: < 1000 nM and < 1000 nM.
The corresponding values for `CNC(C)C(=O)NC(C(=O)N(CCCCCNC(=O)OCc1ccccc1)CC(=O)NC1CCCc2ccccc21)C(C)C` (stereo not drawn) [(5-{[3-Methyl-2-(2-methylamino-propionylamino)-butyryl]-[(1,2,3,4-tetrahydro-naphthalen-1-ylcarbamoyl)-methyl]-amino}-pentyl)-carbamic acid benzyl ester] are < 1000 nM and 1000 to 10000 nM.
For `CNC(C)C(=O)NC(C(=O)NC(CCOCc1ccccc1)C(=O)NC1CCCc2ccccc21)C(C)C` (stereo not drawn) [N-[3-Benzyloxy-1-(1,2,3,4-tetrahydro-naphthalen-1-ylcarbamoyl)-propyl]-3-methyl-2-(2-methylamino-propionylamino)-butyramide], the values for the EC50 in experiment [1] and in experiment [2] were < 1000 nM and 1000 to 10000 nM, respectively.
The matching figures for `CNC(C)C(=O)NC(C(=O)N1CCSC1C(=O)NC1CCCc2ccccc21)C(C)C` (stereo not drawn) [3-[3-Methyl-2-(2-methylamino-propionylamino)-butyryl]-thiazolidine-2-carboxylic acid (1,2,3,4-tetrahydro-naphthalen-1-yl)-amide]: < 1000 nM and < 1000 nM.
The matching figures for `CNC(C)C(=O)NC(C(=O)N1CSC(C)(C)C1C(=O)NC1CCCc2ccccc21)C(C)C` (stereo not drawn) [5,5-Dimethyl-3-[3-methyl-2-(2-methylamino-propionylamino)-butyryl]-thiazolidine-4-carboxylic acid (1,2,3,4-tetrahydro-naphthalen-1-yl)-amide]: < 1000 nM and < 1000 nM.
Consider `CNC(C)C(=O)NC(C(=O)NC(CCCCNC(=O)OCc1ccccc1Cl)C(=O)NC1CCCc2ccccc21)C(C)C` (stereo not drawn) [[5-[3-Methyl-2-(2-methylamino-propionylamino)-butyrylamino]-5-(1,2,3,4-tetrahydro-naphthalen-1-ylcarbamoyl)-pentyl]-carbamic acid 2-chloro-benzyl ester], for which the EC50 in experiment [1] and in experiment [2] was < 1000 nM each time.
For the compound `CNC(C)C(=O)NC(C(=O)N1CSCC1C(=O)NN(c1ccccc1)c1ccccc1)C(C)C` (stereo not drawn) [N-{1-[4-(N′,N′-Diphenyl-hydrazinocarbonyl)-thiazolidine-3-carbonyl]-2-methyl-propyl}-2-methylamino-propionamide], the EC50 in experiment [1] was < 1000 nM; in experiment [2], 1000 to 10000 nM.
As for `CCCCC(NC(=O)C(NC(=O)C(C)NC)C(C)C)C(=O)NC1CCCc2ccccc21` (stereo not drawn) [2-[3-Methyl-2-(2-methylamino-propionylamino)-butyrylamino]-hexanoic acid (1,2,3,4-tetrahydro-naphthalen-1-yl)-amide], the EC50 is < 1000 nM in experiment [1] and 1000 to 10000 nM in experiment [2].
The matching figures for `CNC(C)C(=O)NC(C(=O)NC(CCNC(=O)OCc1ccccc1)C(=O)NC1CCCc2ccccc21)C(C)C` (stereo not drawn) [[3-[3-Methyl-2-(2-methylamino-propionylamino)-butyrylamino]-3-(1,2,3,4-tetrahydro-naphthalen-1-ylcarbamoyl)-propyl]-carbamic acid benzyl ester]: < 1000 nM and 1000 to 10000 nM.
For the compound `CNC(C)C(=O)NC(C(=O)N1CS(=O)(=O)CC1C(=O)NC1CCCc2ccccc21)C(C)C` (stereo not drawn) [3-[3-Methyl-2-(2-methylamino-propionylamino)-butyryl]-1,1-dioxo-1l6-thiazolidine-4-carboxylic acid (1,2,3,4-tetrahydro-naphthalen-1-yl)-amide], the EC50 in experiment [1] and in experiment [2] was < 1000 nM each time.
Take `CNC(C)C(=O)NC(C(=O)N1C(C(=O)NC2CCCc3ccccc32)CC2CCCCC21)C(C)C` (stereo not drawn) [1-[3-Methyl-2-(2-methylamino-propionylamino)-butyryl]-octahydro-indole-2-carboxylic acid (1,2,3,4-tetrahydro-naphthalen-1-yl)-amide]: the EC50 in experiment [1] and in experiment [2] was < 1000 nM throughout.
On to `CNC(C)C(=O)NC(C(=O)NC(CCCCNS(=O)(=O)c1ccc([N+](=O)[O-])cc1)C(=O)NC1CCCc2ccccc21)C(C)C` (stereo not drawn) [2-[3-Methyl-2-(2-methylamino-propionylamino)-butyrylamino]-6-(4-nitro-benzenesulfonylamino)-hexanoic acid (1,2,3,4-tetrahydro-naphthalen-1-yl)-amide], for which the EC50 in experiment [1] and in experiment [2] was < 1000 nM each time.
Regarding `CNC(C)C(=O)NC(C(=O)NC(CC(=O)OCc1ccccc1)C(=O)NC1CCCc2ccccc21)C(C)C` (stereo not drawn) [3-[3-Methyl-2-(2-methylamino-propionylamino)-butyrylamino]-N-(1,2,3,4-tetrahydro-naphthalen-1-yl)-succinamic acid benzyl ester], the EC50 was < 1000 nM in experiment [1] and 1000 to 10000 nM in experiment [2].
On to `CCCCN(CCCC)CCCCC(NC(=O)C(NC(=O)C(C)NC)C(C)C)C(=O)NC1CCCc2ccccc21` (stereo not drawn) [6-Dibutylamino-2-[3-methyl-2-(2-methylamino-propionylamino)-butyrylamino]-hexanoic acid (1,2,3,4-tetrahydro-naphthalen-1-yl)-amide], for which the EC50 in experiment [1] and in experiment [2] was < 1000 nM in each case.
For the compound `CCCCCN1C(=O)CCC(NC(=O)C(C)NC)C(=O)N1CC(=O)NC1CCCc2ccccc21` (stereo not drawn) [N-{3,7-Dioxo-1-pentyl-2-[(1,2,3,4-tetrahydro-naphthalen-1-ylcarbamoyl)-methyl]-[1,2]diazepan-4-yl}-2-methylamino-propionamide], the EC50 is 1000 to 10000 nM in experiment [1] and > 10000 nM in experiment [2].
The corresponding values for `CNC(C)C(=O)NC(C(=O)NC(CCN)C(=O)NC1CCCc2ccccc21)C(C)C` (stereo not drawn) [N-[3-Amino-1-(1,2,3,4-tetrahydro-naphthalen-1-ylcarbamoyl)-propyl]-3-methyl-2-(2-methylamino-propionylamino)-butyramide] are < 1000 nM and 1000 to 10000 nM.
